Patent US20260014119A1, “EMOPAMIL-BINDING PROTEIN INHIBITORS AND USES THEREOF” (BIOGEN MA INC., priority 2022, published 2026)

target: T1, EBP (Homo sapiens, UniProt Q15125); assay: EBP Functional Assay (EBP immunoaffinity LC-MS assay); type: biochemical; conditions: EBP enzyme from HEK293T cells; 30 min with inhibitor, then zymosterol-d5 at 37° C. for 4 h; percent conversion by LC-APCI MRM MS
T1 construct: HEK293T cells were utilized as the source of EBP enzyme; endogenous in cells; host or cells: HEK293T
T1 sequence (Q15125 whole entry): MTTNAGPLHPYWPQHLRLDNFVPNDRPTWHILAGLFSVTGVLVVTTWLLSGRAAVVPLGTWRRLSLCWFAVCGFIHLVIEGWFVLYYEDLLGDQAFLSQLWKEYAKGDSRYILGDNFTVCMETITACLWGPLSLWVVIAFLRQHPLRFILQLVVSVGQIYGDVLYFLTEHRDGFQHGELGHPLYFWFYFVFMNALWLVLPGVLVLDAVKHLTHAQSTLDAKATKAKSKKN
Protocol: The EBP immunoaffinity (IA) LC-MS assay measures the potency of small molecule inhibitors of EBP by quantifying their concentration-dependent changes in the enzyme's substrate and product using liquid chromatography atmospheric pressure chemical ionization multiple reaction monitoring mass spectrometry (LC-APCI MRM MS). HEK293T cells were utilized as the source of EBP enzyme. The enzyme was incubated with the small molecule inhibitors at variable concentrations for 30 min. Deuterated form of EBP substrate, zymosterol-d5 (Avanti Polar Lipids, Cat #700068P-1 mg), was then added and the plate was incubated at 37° C. for 4 h. Finally, the sterol isomers were extracted and injected to LC-APCI MRM MS. MRM transition used for the quantification for both zymosterol and […] (substrate and product of EBP enzymatic reaction, respectively) is 372.3-203.2, CE 30 and DP 80 in positive ion mode. Percent conversion of the zymosterol-d5 to dehydrolathosterol-d5 was used to derive IC50 curves. Tasin-1 (1′-[(4-Methoxyphenyl)sulfonyl]-4-methyl-1,4′-bipiperidine, CAS 792927-06-1) was used as the reference small molecule inhibitor.
Percent conversion versus the compound concentration data were fit to the following 4-parameter logistic model to generate IC50 curves: […]

| IC50 | Structure (SMILES) |
| --- | --- |
| 100 to 500 nM | CN(CC1CCOCC1)[C@H]1C[C@@H]2CN(S(=O)(=O)c3ccc(OC(F)F)cc3)C[C@@H]2C1 [Example 17, (3aR,5s,6aS)-2-((4-(Difluoromethoxy)phenyl)sulfonyl)-N-methyl-N-((tetrahydro-2H-pyran-4-yl)methyl)octahydrocyclopenta[c]pyrrol-5-amine] |
| 100 to 500 nM | Cc1nc(C(F)(F)F)ncc1S(=O)(=O)N1C[C@H]2CN(C3CCOCC3)C[C@@H]2C1 (racemic) [Example 57, Rac-(3aR,6aR)-2-((4-methyl-2-(trifluoromethyl)pyrimidin-5-yl)sulfonyl)-5-(tetrahydro-2H-pyran-4-yl)octahydropyrrolo[3,4-c]pyrrole] |
| 100 to 500 nM | Cc1nc(C(F)(F)F)ccc1S(=O)(=O)N1C[C@H]2CN(CC34COC(C)(C3)C4)C[C@@H]2C1 (racemic) [Example 54] |
| > 500 nM | Cc1nc(C(F)(F)F)ccc1S(=O)(=O)N1C[C@H]2CN(CC3COC3)C[C@@H]2C1 (racemic) [Example 52, Rac-(3aR,6aR)-2-((2-methyl-6-(trifluoromethyl)pyridin-3-yl)sulfonyl)-5-(oxetan-3-ylmethyl)octahydropyrrolo[3,4-c]pyrrole] |
| 100 to 500 nM | Cn1nc(C(F)(F)F)cc1S(=O)(=O)N1C[C@H]2CN(C3CCOCC3)C[C@@H]2C1 [Example 46, (3aR,6aR)-2-((1-Methyl-3-(trifluoromethyl)-1H-pyrazol-5-yl)sulfonyl)-5-(tetrahydro-2H-pyran-4-yl)octahydropyrrolo[3,4-c]pyrrole] |
| 100 to 500 nM | O=S(=O)(c1ccc(OC(F)F)cc1)N1C[C@H]2C[C@H](NC3CC4(COC4)C3)C[C@H]2C1 [Example 19, (3aR,5s,6aS)-2-((4-(Difluoromethoxy)phenyl)sulfonyl)-N-(2-oxaspiro[3.3]heptan-6-yl)octahydrocyclopenta[c]pyrrol-5-amine] |
| < 100 nM | Cn1nc(C2CC2)cc1S(=O)(=O)N1C[C@H]2C[C@H](NCC3(C)COC3)C[C@H]2C1 [Example 21, (3aR,5s,6aS)-2-((3-Cyclopropyl-1-methyl-1H-pyrazol-5-yl)sulfonyl)-N-((3-methyloxetan-3-yl)methyl)octahydrocyclopenta[c]pyrrol-5-amine] |
| > 500 nM | N#Cc1cc(F)cc(S(=O)(=O)N2C[C@H]3CN(C4CCOCC4)C[C@H]3C2)c1 [Example 33, 3-Fluoro-5-(((3aR,6aS)-5-(tetrahydro-2H-pyran-4-yl)hexahydropyrrolo[3,4-c]pyrrol-2(1H)-yl)sulfonyl)benzonitrile] |
| 100 to 500 nM | O=S(=O)(c1ccc(OC(F)F)cc1)N1C[C@H]2C[C@H](NCC3CCOCC3)C[C@H]2C1 [Example 8, (3aR,5s,6aS)-2-((4-(Difluoromethoxy)phenyl)sulfonyl)-N-((tetrahydro-2H-pyran-4-yl)methyl)octahydrocyclopenta[c]pyrrol-5-amine] |
| 100 to 500 nM | O=S(=O)(c1ccc(OC(F)F)cc1)N1C[C@H]2C[C@H](NC3CCOC3)C[C@H]2C1 (stereo partly drawn) [Example 15, (3aR,5s,6aS)-2-((4-(Difluoromethoxy)phenyl)sulfonyl)-N-(tetrahydrofuran-3-yl)octahydrocyclopenta[c]pyrrol-5-amine] |
| < 100 nM | Cc1nc(C(F)(F)F)ccc1S(=O)(=O)N1C[C@H]2C[C@H](NC3CCOCC3)C[C@H]2C1 [Example 28, (3aR,5s,6aS)-2-((2-Methyl-6-(trifluoromethyl)pyridin-3-yl)sulfonyl)-N-(tetrahydro-2H-pyran-4-yl)octahydrocyclopenta[c]pyrrol-5-amine] |
| < 100 nM | Cc1ccc(S(=O)(=O)N2C[C@H]3C[C@H](N4CCC(C)CC4)C[C@H]3C2)c(C)c1 [Example 3, (3aR,5s,6aS)-2-((2,4-Dimethylphenyl)sulfonyl)-5-(4-methylpiperidin-1-yl)octahydrocyclopenta[c]pyrrole] |
| 100 to 500 nM | Cc1nc(C(F)(F)F)ccc1S(=O)(=O)N1C[C@@H]2CN(C3CCOCC3)C[C@H]2C1 (single isomer, unassigned) [Example 47] |
| 100 to 500 nM | COc1ncc(C)cc1S(=O)(=O)N1C[C@H]2C[C@H](NCC3CCOCC3)C[C@H]2C1 [Example 9, (3aR,5s,6aS)-2-((2-Methoxy-5-methylpyridin-3-yl)sulfonyl)-N-((tetrahydro-2H-pyran-4-yl)methyl)octahydrocyclopenta[c]pyrrol-5-amine] |
| < 100 nM | Cc1nc(C(F)(F)F)ccc1S(=O)(=O)N1C[C@H]2CN(C3CCOCC3)C[C@H]2C1 [Example 35, (3aR,6aS)-2-((2-Methyl-6-(trifluoromethyl)pyridin-3-yl)sulfonyl)-5-(tetrahydro-2H-pyran-4-yl)octahydropyrrolo[3,4-c]pyrrole] |
| < 100 nM | Cc1nc(C(F)(F)F)ccc1S(=O)(=O)N1C[C@H]2C[C@H](NCC3(C)COC3)C[C@H]2C1 [Example 29, (3aR,5s,6aS)-2-((2-Methyl-6-(trifluoromethyl)pyridin-3-yl)sulfonyl)-N-((3-methyloxetan-3-yl)methyl)octahydrocyclopenta[c]pyrrol-5-amine] |
| 100 to 500 nM | Cn1nc(C2CC2)cc1S(=O)(=O)N1C[C@H]2C[C@H](NC3CC4(COC4)C3)C[C@H]2C1 [Example 20, (3aR,5s,6aS)-2-((3-Cyclopropyl-1-methyl-1H-pyrazol-5-yl)sulfonyl)-N-(2-oxaspiro[3.3]heptan-6-yl)octahydrocyclopenta[c]pyrrol-5-amine] |
| < 100 nM | Cc1nc(C(F)(F)F)nc(C)c1S(=O)(=O)N1C[C@H]2CN(C3CCOCC3)C[C@@H]2C1 [Example 60, (3aR,6aR)-2-((4,6-dimethyl-2-(trifluoromethyl)pyrimidin-5-yl)sulfonyl)-5-(tetrahydro-2H-pyran-4-yl)octahydropyrrolo[3,4-c]pyrrole] |
| 100 to 500 nM | Cc1nc(C(F)(F)F)ccc1S(=O)(=O)N1C[C@H]2CN(CC34CCOC(C)(C3)C4)C[C@@H]2C1 (racemic) [Example 53, Rac-(3aR,6aR)-2-((1-methyl-2-oxabicyclo[3.1.1]heptan-5-yl)methyl)-5-((2-methyl-6-(trifluoromethyl)pyridin-3-yl)sulfonyl)octahydropyrrolo[3,4-c]pyrrole] |
